# Measurements taken from patent US20240025884A1 (Dong-A ST Co., Ltd., priority 2022, published 2024).
# Molecular target: GCN2 (Homo sapiens (Human), UniProt Q9P2K8)
# Assay: GCN2 Biochemical Assay (TR-FRET, GFP-eIF2S1 substrate phosphorylation)
# Conditions: read-out: IC50 (GCN2 Inhibitory Activity)
# Method in brief: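 In-house GCN2 (1.6 nM 2× stock) phosphorylates GFP-eIF2S1 (50 nM 2× stock) with ATP (0.2 mM 2× stock) and tRNA, pH 7.5, 70 min at room temperature; 10-point 3.16-fold compound series. TR-FRET detection with Tb-anti-phospho antibody, 2–3 h, Ex 340/Em 490/520 nm; artifact plate spiked with phospho-substrate.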
# GCN2, sequence (Q9P2K8 whole entry): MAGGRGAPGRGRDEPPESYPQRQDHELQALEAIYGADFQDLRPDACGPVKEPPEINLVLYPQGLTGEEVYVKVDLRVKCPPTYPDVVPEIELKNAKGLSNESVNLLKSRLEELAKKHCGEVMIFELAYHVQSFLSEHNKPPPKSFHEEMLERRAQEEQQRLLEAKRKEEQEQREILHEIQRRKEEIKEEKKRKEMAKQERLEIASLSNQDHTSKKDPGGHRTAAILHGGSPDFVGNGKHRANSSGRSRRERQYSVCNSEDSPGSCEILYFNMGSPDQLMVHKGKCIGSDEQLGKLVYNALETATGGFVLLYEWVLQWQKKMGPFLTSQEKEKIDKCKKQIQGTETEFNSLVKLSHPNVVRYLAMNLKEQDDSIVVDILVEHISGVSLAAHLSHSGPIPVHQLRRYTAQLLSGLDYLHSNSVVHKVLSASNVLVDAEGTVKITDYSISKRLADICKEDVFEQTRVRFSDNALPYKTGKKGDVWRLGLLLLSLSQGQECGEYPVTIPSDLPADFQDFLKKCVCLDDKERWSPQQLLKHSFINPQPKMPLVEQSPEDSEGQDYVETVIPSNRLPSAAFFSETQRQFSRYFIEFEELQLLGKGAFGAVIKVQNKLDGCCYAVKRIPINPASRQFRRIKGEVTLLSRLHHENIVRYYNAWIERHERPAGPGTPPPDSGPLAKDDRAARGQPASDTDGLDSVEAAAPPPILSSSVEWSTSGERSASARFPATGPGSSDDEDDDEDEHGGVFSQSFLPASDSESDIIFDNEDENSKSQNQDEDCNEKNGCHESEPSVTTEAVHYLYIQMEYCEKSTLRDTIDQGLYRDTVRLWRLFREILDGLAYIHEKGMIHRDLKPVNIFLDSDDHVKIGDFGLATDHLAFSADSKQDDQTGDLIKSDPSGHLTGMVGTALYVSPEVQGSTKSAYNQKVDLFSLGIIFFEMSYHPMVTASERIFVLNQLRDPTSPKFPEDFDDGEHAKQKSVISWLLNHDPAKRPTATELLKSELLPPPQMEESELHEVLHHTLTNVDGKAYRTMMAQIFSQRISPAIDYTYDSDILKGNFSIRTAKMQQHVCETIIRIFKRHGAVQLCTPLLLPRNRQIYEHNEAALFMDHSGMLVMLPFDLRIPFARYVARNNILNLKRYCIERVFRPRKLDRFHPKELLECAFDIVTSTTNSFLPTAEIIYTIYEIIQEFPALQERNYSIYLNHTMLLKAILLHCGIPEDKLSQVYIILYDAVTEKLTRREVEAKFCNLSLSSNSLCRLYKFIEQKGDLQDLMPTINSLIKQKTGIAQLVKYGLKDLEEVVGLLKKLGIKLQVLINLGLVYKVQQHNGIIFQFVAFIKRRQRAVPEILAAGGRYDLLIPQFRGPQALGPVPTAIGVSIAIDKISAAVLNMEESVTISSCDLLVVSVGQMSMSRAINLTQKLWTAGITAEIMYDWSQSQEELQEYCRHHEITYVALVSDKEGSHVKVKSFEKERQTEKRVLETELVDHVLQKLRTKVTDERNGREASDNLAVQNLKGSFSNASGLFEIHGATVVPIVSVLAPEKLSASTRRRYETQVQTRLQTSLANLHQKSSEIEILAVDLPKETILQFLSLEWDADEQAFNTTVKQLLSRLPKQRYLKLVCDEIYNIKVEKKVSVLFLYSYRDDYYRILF
row,Compound,IC50 [nM]
1,"Cc1cnc(Nc2cc(C)n(C)n2)nc1-c1c[nH]c2c(N3C(=O)c4cccnc4C3=O)cccc12 [Example 265, 6-(3-(2-((1,5-dimethyl-1H-pyrazol-3-yl)amino)-5-methylpyrimidin-4-yl)-1H-indol-7-yl)-5H-pyrrolo[3,4-b]pyridine-5,7(6H)-dione]",< 10
2,"Cc1cnc(Nc2cc(C)n(C)n2)nc1-c1c[nH]c2c(N3Cc4c(Br)cccc4C3=O)cccc12 [Example 266, 4-bromo-2-(3-(2-((1,5-dimethyl-1H-pyrazol-3-yl)amino)-5-methylpyrimidin-4-yl)-1H-indol-7-yl)isoindolin-1-one]",< 10
3,"Cc1cnc(Nc2cc(C)n(C)n2)nc1-c1c[nH]c2c(N3Cc4c(cccc4[N+](=O)[O-])C3=O)cccc12 [Example 271, 2-(3-(2-((1,5-dimethyl-1H-pyrazol-3-yl)amino)-5-methylpyrimidin-4-yl)-1H-indol-7-yl)-4-nitroisoindolin-1-one]",< 10
4,"Cc1cnc(Nc2cc(C)n(C)n2)nc1-c1c[nH]c2c(N3Cc4c(N)cccc4C3=O)cccc12 [Example 272, 4-amino-2-(3-(2-((1,5-dimethyl-1H-pyrazol-3-yl)amino)-5-methylpyrimidin-4-yl)-1H-indol-7-yl)isoindolin-1-one]",< 10
5,"Cc1cnc(Nc2cc(C)n(C)n2)nc1-c1c[nH]c2c(N3Cc4cccc(Cl)c4C3=O)cccc12 [Example 273, 7-chloro-2-(3-(2-((1,5-dimethyl-1H-pyrazol-3-yl)amino)-5-methylpyrimidin-4-yl)-1H-indol-7-yl)isoindolin-1-one]",< 10
6,"Cc1cnc(Nc2cc(C)n(C)n2)nc1-c1c[nH]c2c(N3Cc4cccc([N+](=O)[O-])c4C3=O)cccc12 [Example 274, 2-(3-(2-((1,5-dimethyl-1H-pyrazol-3-yl)amino)-5-methylpyrimidin-4-yl)-1H-indol-7-yl)-7-nitroisoindolin-1-one]",< 10
7,"Cc1cnc(Nc2cc(C)n(C)n2)nc1-c1c[nH]c2c(N3Cc4cccc(I)c4C3=O)cccc12 [Example 275, 2-(3-(2-((1,5-dimethyl-1H-pyrazol-3-yl)amino)-5-methylpyrimidin-4-yl)-1H-indol-7-yl)-7-iodoisoindolin-1-one]",10 to 100
8,"Cc1cnc(Nc2cc(C)n(C)n2)nc1-c1c[nH]c2c(N3Cc4cccc(N)c4C3=O)cccc12 [Example 276, 7-amino-2-(3-(2-((1,5-dimethyl-1H-pyrazol-3-yl)amino)-5-methylpyrimidin-4-yl)-1H-indol-7-yl)isoindolin-1-one]",10 to 100
9,"Cc1cnc(Nc2cc(C)n(C)n2)nc1-c1c[nH]c2c(N3Cc4c(I)cccc4C3=O)cccc12 [Example 278, 2-(3-(2-((1,5-dimethyl-1H-pyrazol-3-yl)amino)-5-methylpyrimidin-4-yl)-1H-indol-7-yl)-4-iodoisoindolin-1-one]",< 10
10,"COc1cc(OC)c2c(c1)C(=O)N(c1cccc3c(-c4nc(Nc5cc(C)n(C)n5)ncc4C)c[nH]c13)C2 [Example 280, 2-(3-(2-((1,5-dimethyl-1H-pyrazol-3-yl)amino)-5-methylpyrimidin-4-yl)-1H-indol-7-yl)-4,6-dimethoxyisoindolin-1-one]",100 to 1000
11,"Cc1cnc(Nc2cc(C)n(C)n2)nc1-c1c[nH]c2c(N3Cc4c(O)cccc4C3=O)cccc12 [Example 281, 2-(3-(2-((1,5-dimethyl-1H-pyrazol-3-yl)amino)-5-methylpyrimidin-4-yl)-1H-indol-7-yl)-4-hydroxyisoindolin-1-one]",< 10
12,"Cc1cnc(Nc2cc(C)n(C)n2)nc1-c1c[nH]c2c(N3Cc4cccc(F)c4C3=O)cccc12 [Example 282, 2-(3-(2-((1,5-dimethyl-1H-pyrazol-3-yl)amino)-5-methylpyrimidin-4-yl)-1H-indol-7-yl)-7-fluoroisoindolin-1-one]",< 10
13,"Cc1cnc(Nc2cc(C)n(C)n2)nc1-c1c[nH]c2c(N3Cc4c(Br)ccc(F)c4C3=O)cccc12 [Example 283, 4-bromo-2-(3-(2-((1,5-dimethyl-1H-pyrazol-3-yl)amino)-5-methylpyrimidin-4-yl)-1H-indol-7-yl)-7-fluoroisoindolin-1-one]",< 10
14,"Cc1cnc(Nc2cc(C)n(C)n2)nc1-c1c[nH]c2c(N3Cc4cc(Br)cnc4C3=O)cccc12 [Example 285, 3-bromo-6-(3-(2-((1,5-dimethyl-1H-pyrazol-3-yl)amino)-5-methylpyrimidin-4-yl)-1H-indol-7-yl)-5,6-dihydro-7H-pyrrolo[3,4-b]pyridin-7-one]",< 10
15,"Cc1cnc(Nc2cc(C)n(C)n2)nc1-c1c[nH]c2c(N3Cc4c(Br)ccnc4C3=O)cccc12 [Example 286, 4-bromo-6-(3-(2-((1,5-dimethyl-1H-pyrazol-3-yl)amino)-5-methylpyrimidin-4-yl)-1H-indol-7-yl)-5,6-dihydro-7H-pyrrolo[3,4-b]pyridin-7-one]",< 10
16,"Cc1cnc2c(c1)CN(c1cccc3c(-c4nc(Nc5cc(C)n(C)n5)ncc4C)c[nH]c13)C2=O [Example 287, 6-(3-(2-((1,5-dimethyl-1H-pyrazol-3-yl)amino)-5-methylpyrimidin-4-yl)-1H-indol-7-yl)-3-methyl-5,6-dihydro-7H-pyrrolo[3,4-b]pyridin-7-one]",< 10

# Continued, values first:
row,IC50 [nM],Compound
1,10 to 100,"Cc1cnc(Nc2cc(C)n(C)n2)nc1-c1c[nH]c2c(N3Cc4ccccc4C3=O)cccc12 [Example 267, 2-(3-(2-((1,5-dimethyl-1H-pyrazol-3-yl)amino)-5-methylpyrimidin-4-yl)-1H-indol-7-yl)isoindolin-1-one]"
2,< 10,"Cc1cnc(Nc2cc(C)n(C)n2)nc1-c1c[nH]c2c(N3Cc4ccc([N+](=O)[O-])cc4C3=O)cccc12 [Example 268, 2-(3-(2-((1,5-dimethyl-1H-pyrazol-3-yl)amino)-5-methylpyrimidin-4-yl)-1H-indol-7-yl)-6-nitroisoindolin-1-one]"
3,< 10,"Cc1cnc(Nc2cc(C)n(C)n2)nc1-c1c[nH]c2c(N3Cc4ccc(N)cc4C3=O)cccc12 [Example 269, 6-amino-2-(3-(2-((1,5-dimethyl-1H-pyrazol-3-yl)amino)-5-methylpyrimidin-4-yl)-1H-indol-7-yl)isoindolin-1-one]"
4,< 10,"Cc1cnc(Nc2cc(C)n(C)n2)nc1-c1c[nH]c2c(N3Cc4cc(Br)ccc4C3=O)cccc12 [Example 270, 5-bromo-2-(3-(2-((1,5-dimethyl-1H-pyrazol-3-yl)amino)-5-methylpyrimidin-4-yl)-1H-indol-7-yl)isoindolin-1-one]"
5,10 to 100,"Cc1cnc(Nc2cc(C)n(C)n2)nc1-c1c[nH]c2c(N3Cc4cccc(Br)c4C3=O)cccc12 [Example 277, 7-bromo-2-(3-(2-((1,5-dimethyl-1H-pyrazol-3-yl)amino)-5-methylpyrimidin-4-yl)-1H-indol-7-yl)isoindolin-1-one]"
6,10 to 100,"COc1ccc2c(c1)C(=O)N(c1cccc3c(-c4nc(Nc5cc(C)n(C)n5)ncc4C)c[nH]c13)C2 [Example 279, 2-(3-(2-((1,5-dimethyl-1H-pyrazol-3-yl)amino)-5-methylpyrimidin-4-yl)-1H-indol-7-yl)-6-methoxyisoindolin-1-one]"
7,10 to 100,"Cc1cnc(Nc2cc(C)n(C)n2)nc1-c1c[nH]c2c(N3Cc4ccc(Br)cc4C3=O)cccc12 [Example 284, 6-bromo-2-(3-(2-((1,5-dimethyl-1H-pyrazol-3-yl)amino)-5-methylpyrimidin-4-yl)-1H-indol-7-yl)isoindolin-1-one]"
